In publication PMC9569529, “Safe and Efficient Sigma1 Ligand: A Potential Drug Candidate for Multiple Sclerosis” (International Journal of Molecular Sciences, 2022):

Key:
[1] = tested on: dizocilpine-induced learning deficits; assay: Dizocilpine-induced learning deficits, step-through passive avoidance; assay type: in vivo, male Swiss mice
Method: (§1) The activity of compound 7i was evaluated in regard to its ability to reverse dizocilpine-induced learning deficits. Two behavioral tests were performed by Amylgen (Montferrier-sur-Lez, France) on male Swiss mice (aged 6–9 weeks). All compounds (7i and controls) were intraperitoneally injected.
(§2) Animals were tested for spontaneous alternation performance in the Y-maze, an index of spatial working memory. Made of grey polyvinylchloride, the Y-maze has an arm which is 40 cm long, 13 cm high and 3 cm wide at the bottom and 10 cm wide at the top, converging at an equal angle. Each mouse was placed at the end of one arm and allowed to move freely through the maze during an 8-min session. The series of arm entries, including possible returns into the same arm, were checked visually. An alternation was defined as entries into all three arms on consecutive occasions. The number of maximum alternations was therefore the total number of arm entries minus two, and the percentage of alternation was calculated as: (actual alternations/maximum alternations) × 100. Parameters included the percentage of alternation (memory index) and the total number of arm entries (exploration index). Animals showing extreme behavior (alternation < 20% or >90% or number of arm entries < 10) are usually discarded from the calculations. […] Step-through latency (the latency in time spent to enter the dark compartment) and the number of vocalizations were recorded. […] Step-through latency was recorded up to 300 s. When either the mouse entered the dark compartment or 300 s had elapsed (they were therefore manually placed in it), escape latency (latency to exit from the dark compartment) was recorded with a value of up to 300 s. […]

QT interval = assay: ECG QT interval analysis under isoflurane anesthesia; settings: for QT Interval Basal / QT Interval 3 min / QT Interval 6 min / QT Interval 10 min / QT Interval 20 min / QT Interval 30 min: in ms (unit assumed); for QT Interval 3 min: 3 min after injection; for QT Interval 6 min: 6 min after injection; for QT Interval 10 min: 10 min after injection; for QT Interval 20 min: 20 min after injection; for QT Interval 30 min: 30 min after injection
Method: Four electrodes were inserted subcutaneously in the mouse limbs. Electrical signals were recorded with a Powerlab (Ad instruments) and analyzed with LabChart Pro software (v8.1.19).
Heart rate and PR, QRS and QT intervals were measured as described in Supplementary Figure S3.

S. typhimurium TA98 = assay: Ames test; settings: 7i 40 µg/plate
[2] = tested on: dizocilpine-induced learning deficits; assay: Dizocilpine-induced learning deficits, Y-maze spontaneous alternation; assay type: in vivo, male Swiss mice
Method: as §1, §2

S. typhimurium TA1537 = assay: Ames test; settings: 7i 40 µg/plate
[3] = tested on: human peripheral blood mononuclear cells (hPBMCs); assay: Immunotoxicity, immunophenotyping by flow cytometry; assay type: cell-based; settings: 10 µM, 48 h
Method: Immunotoxicity analysis was performed by Immune Insight CRO (Lille, France) on human peripheral blood mononuclear cells (hPBMCs) from six individual healthy donors. hPBMCs were either non-stimulated (basal) or stimulated using E. coli lipopolysaccharide (LPS, Sigma Aldrich, St. Louis, MO, USA) at 100 ng/mL. hPBMCs were activated with plate-bound anti-CD3 (10 ng/mL) monoclonal antibody (mAb) and incubated at 37 °C for 2 h before the culture and soluble anti-CD28 (10 ng/mL) mAb (Clinisciences, Montrouge, France) were added. Compound 7i was tested at 10 µM. The quality of hPBMC activation was controlled using cytometric analysis based on CD25 staining and proliferation assays based on ^3H-thymidine incorporation. Immune cell subpopulations were immunophenotyped among hPBMCs by flow cytometry on an Attune NxT (Thermofisher Scientific Inc. Waltham, MA, USA). Analyses were performed at 48 h post treatment. The expression of B, CD4, CD8, Th17 and Treg lymphocyte surface antigens was tested using monoclonal mouse anti-human Ab (Miltenyi Biotec SAS, Paris, France) (Table 9). […]

[4] = +S9, positive control 2-anthramine 0.5

Structure (SMILES): CN(CCCNC(=O)c1ccc(Cl)cc1)Cc1ccccc1 [compound 7i]
- dizocilpine-induced learning deficits, passive avoidance ([1]; 0.1 and 0.5 mg/kg i.p., dizocilpine 0.15 mg/kg): significantly attenuated
- beneficial effect in passive avoidance with NE-100 treatment ([1]; plus NE-100 at 3 mg/kg i.p.): prevented
- QT Interval Basal (QT interval; 0.5 mg/kg i.p. group): 49 ± 3
- QT Interval 3 min (QT interval; 0.5 mg/kg i.p.): 48 ± 4
- QT Interval 6 min (QT interval; 0.5 mg/kg i.p.): 46 ± 4
- QT Interval 10 min (QT interval; 0.5 mg/kg i.p.): 53 ± 3
- QT Interval 20 min (QT interval; 0.5 mg/kg i.p.): 59 ± 4
- QT Interval 30 min (QT interval; 0.5 mg/kg i.p.): 58 ± 3
- QT Interval Basal (QT interval; 1.0 mg/kg i.p. group): 48 ± 1
- QT Interval 3 min (QT interval; 1.0 mg/kg i.p.): 45 ± 2
- QT Interval 6 min (QT interval; 1.0 mg/kg i.p.): 46 ± 2
- QT Interval 10 min (QT interval; 1.0 mg/kg i.p.): >49 ± 1
- QT Interval Basal (QT interval; 10.0 mg/kg i.p. group): 46 ± 1
- QT Interval 3 min (QT interval; 10.0 mg/kg i.p.): 43 ± 1
- QT Interval 6 min (QT interval; 10.0 mg/kg i.p.): 45 ± 3
- QT Interval 10 min (QT interval; 10.0 mg/kg i.p.): 49 ± 2
- QT Interval 20 min (QT interval; 10.0 mg/kg i.p.): 52 ± 1
- QT Interval 30 min (QT interval; 10.0 mg/kg i.p.): 54 ± 1
- cardiac repolarization (QT interval), conclusion (QT interval; 0.5 to 10 mg/kg i.p.): no alteration in cardiac repolarization
- heart rate, PR and QRS duration (QT interval; 0.5 to 10 mg/kg i.p.): did not alter
- pro-arrhythmic effect (QT interval; 0.5 to 10 mg/kg i.p.): does not induce a pro-arrhythmic effect
- Ames TA98 +S9 (Mean revertants/well per title) (S. typhimurium TA98; [4]): 1.1
- Ames TA98 −S9 (Mean revertants/well per title) (S. typhimurium TA98; −S9, positive control 2-nitrofluorene 0.5): 1.1
- dizocilpine-induced learning deficits, Y-maze spontaneous alternation ([2]; 0.5 mg/kg i.p., dizocilpine 0.15 mg/kg): significantly attenuated
- beneficial effect in Y-maze with NE-100 treatment ([2]; plus NE-100 at 3 mg/kg i.p.): prevented
- Ames TA1537 +S9 (Mean revertants/well per title) (S. typhimurium TA1537; [4]): 1.1
- Ames TA1537 −S9 (Mean revertants/well per title) (S. typhimurium TA1537; −S9, positive control 9-amino-acridine 1.56): 0.9
- effect on percentage of B, Th17, CD4 and CD8 T lymphocyte subpopulations and regulatory T cells ([3]; basal non-stimulating conditions): no effect
- toxicity on immune subpopulations ([3]; stimulating or not stimulating conditions): no toxicity effect
